Test results: patent US9951226B2, “Compound based on cyanine scaffold for diagnosis sepsis by selectively detect glutathione” (EWHA UNIVERSITY—INDUSTRY COLLABORATION FOUNDATION, priority 2014, dated 2018)

Assays:
HeLa cells = experiment: Detection of intracellular biothiol in HeLa cells, confocal laser scanning microscope; assay type: cell-based, human; details: 10 μM compound
Experimental: HeLa cells (human adenocarcinoma cells, Korea Cell Line Bank) were cultured in RPMI 1640 (Roswell Park Memorial Institute) supplemented with 10% heat-inactivated fetal bovine serum (FBS), 100 U/mL penicillin, and 100 U/mL streptomycin in a 37° C. 5% CO2 incubator. The cells were either treated or not treated with 1 mM of N-methylmaleimide (NMM) known as a thiol blocker for 20 minutes. 100 μM of each amino acid containing thiol group (R—SH) such as cysteine, homocysteine, and glutathione was added thereto. Then, the cells were seeded in 35-mm glass bottomed dishes at the density of 3×10^5 cells/dish in 1640 medium. 24 hours later, 10 μM of the compound prepared in Example 1 was added thereto, followed by culture at 37° C. for 20 minutes. The cells were washed with DPBS (Dulbecco's Phosphate Buffered Saline) twice to eliminate the remaining compound, followed by imaging with confocal laser scanning microscope (Fluoview 1200, Olympus, Japan). At this time, the emitting filter with the excitation wavelength of 635 nm and the band-path (BP) of 655˜755 nm was used.

[1] = Glutathione selectivity: absorption/fluorescence spectrum with various amino acids in HEPES buffer; assay type: biochemical; details: 10 μM compound
Experimental: 10 μM of the compound prepared in Example 2 was treated to HEPES (4-(2-hydroxyethyl)piperazine-1-ethanesulfonic acid) buffer (10 mM, pH=7.4) containing 10% DMSO and 100 μM of each glutathione, cysteine, homocysteine, dithiothreitol, phenylalanine, histidine, glutamine, lysine, glutamate, glycine, serine, alanine, arginine, methionine, and tyrosine, followed by observation of fluorescence spectrum at 25° C. by using RF-5310/PC fluorescence spectrometer (Shimada, 1 cm quartz cell).
An experiment was performed by the same manner as described in Experimental Example 3 except that the fragment 1 or the fragment 2 was used instead of the compound prepared in Example 2. […] To disclose the reason in relation to the above, the 3-dimensional structure of each of the compound of Example 1, the compound of Example 2, and the fragment 1 or the fragment 2, was investigated along with band-gap.
10 μM of the compound prepared in Example 3 and 100 μM of each endogenous amino acid (alanine, arginine, cysteine, glutamate, glycine, glutathione, homocysteine, histidine, lysine, methionine, serine, and tyrosine) were added to HEPES (4-(2-hydroxyethyl)piperazine-1-ethanesulfonic acid) buffer (10 mM, pH=7.4) containing 10% dimethylsulfoxide (DMSO), followed by observation of absorption spectrum presented through UV-vis sepctra (Scinco 3000 spectrophotometer, 1 cm quartz cell) at 25° C.
(§1) The following experiment was performed by the same manner as described in Experimental Example <15-1> except that fluorescence spectrum was observed by using RF-5310/PC fluorescence spectrometer (Shimada, 1 cm quartz cell) instead of observing absorption spectrum via UV-vis sepctra (Scinco 3000 spectrophotometer, 1 cm quartz cell) (λex=730 nm, λem=736 nm, slit:10/10 nm).

[2] = Absorption and fluorescence spectrum over the time after reaction with glutathione; assay type: biochemical; details: 10 μM compound, 100 μM glutathione, HEPES pH 7.4, 10% DMSO
Experimental: 10 μM of the compound prepared in Example 2 and 100 μM of glutathione were added to HEPES (4-(2-hydroxyethyl)piperazine-1-ethanesulfonic acid) buffer (10 mM, pH=7.4) containing 10% dimethylsulfoxide (DMSO), followed by observation of absorption spectrum at 25° C. using UV-vis sepctra (Scinco 3000 spectrophotometer, 1 cm quartz cell) over the time. The results are shown in FIG. 8 (spectrum was photographed every 0.5 minute).
as §1, with “<5-1>” for “<15-1>”, “nm). The results are shown in FIG. 9 (spectrum was photographed every 0.5 minute).” for “nm).”

[3] = test system: neutrophils of peritoneal cells; experiment: Capacity of diagnosing sepsis: FACS of neutrophils of peritoneal cells from CLP sepsis mouse; assay type: cell-based; details: 8 hours, 10 μM compound
Experimental: According to a reference (J Vis Exp. 2011 May 7; (51). pii: 2860. doi: 10.3791/2860), C57BL/6 mouse (7˜8 weeks old, female, Jackson Laboratory) was induced with sepsis by performing CLP (cecal ligation and puncture). 8 hours later, peritoneal cells were extracted from the mouse. The cells were centrifuged and reacted to the neutrophil marker Ly6G (eFluor®450, eBioscience, Cat No. 48-5931) and 10 μM of the compound prepared in Example 2 at room temperature. 25 minutes later, 1 mL of 3% fetal bovine serum (FBS) was added thereto, followed by centrifugation at 3000 rpm for 5 minutes to wash the cells. The cells were resuspended in […] of HEPES (4-(2-hydroxyethyl)piperazine-1-ethanesulfonic acid) buffer (10 mM, pH=7.4), followed by FACS (Fluorescence Activated Cell Sorting) using the data analysis software FlowJo to observe the peaks (The setting for Alexa flour 700 fluorescence was hired, BD FACSVerse™).

## CCCN1/C(=C/C=C2\CCCC(/C=C/C3=[N+](CCC)c4ccccc4C3(C)C)=C2N2CCN(S(=O)(=O)c3cccc4c(N(C)C)cccc34)CC2)C(C)(C)c2ccccc21.[I-] [Example 2, 2-((E)-2-((E)-3-((E)-2-(3,3-dimethyl-1-propylindolin-2-ylidene)ethylidene)-2-(4-(5-(dimethylamino)naphthalene-1-ylsulfonyl)piperazine-1-yl)cyclohex-1-enyl)binyl)-3,3-dimethyl-1-propyl-3H-indolium iodide]
HeLa cells; HeLa cells pre-treated with NMM, 100 μM cysteine added
  red fluorescence under confocal laser scanning microscope: red fluorescence was not detected
HeLa cells; HeLa cells pre-treated with NMM, 100 μM glutathione added
  red fluorescence under confocal laser scanning microscope: strong red fluorescence was observed
HeLa cells; HeLa cells pre-treated with NMM, 100 μM homocysteine added
  red fluorescence under confocal laser scanning microscope: red fluorescence was not detected
HeLa cells; HeLa cells pre-treated with thiol blocker NMM 1 mM
  red fluorescence under confocal laser scanning microscope: red fluorescence was not observed
HeLa cells; HeLa cells, 20 minutes
  red fluorescence under confocal laser scanning microscope: strong red fluorescence was observed
[1]; 100 μM glutathione, HEPES pH 7.4, 10% DMSO, 25° C.
  fluorescence strength near 735 nm: strong fluorescence strength
[1]; 100 μM other amino acids, HEPES pH 7.4, 10% DMSO
  fluorescence strength at 736 nm: very weak fluorescence strength
[1]; glutathione, cysteine, homocysteine, FIG. 5
  fluorescence signal at around 736 nm over the time: selectivity among cysteine, homocysteine and glutathione: selectively reacted to glutathione alone
[2]
  time to maximum fluorescence signal at 736 nm: ≤ 15 min
[2]; 25° C.
  time to minimum absorption signal at 750 nm: ≤ 15 min
[3]
  glutathione level in neutrophils detected by the compound (FACS), sepsis mouse compared with normal mouse: reduced
